No end group written: not given here.
Key:
[1] = test system: NIH-3T3 mouse embryonic fibroblast cells; assay: IL-6 secretion by NIH-3T3 fibroblasts (Elisa); format: cell-based; conditions: NIH-3T3 cells, 50 ng/ml, vs control / IL-17 group
Description: FIG. 2: NIH-3T3 mouse embryonic fibroblast cells were treated with IL-17 vehicle (Ctrl), IL-17 (50 ng/ml) alone (IL-17) or peptide (FM-0410) (50 ng/ml) and supernatants were assayed by Elisa for IL-6. Data were expressed as pg/ml and presented as means±S.D. of three separate independent experiments. Statistical analysis was conducted by one-way ANOVA followed by Bonferroni's for multiple comparisons. ^##P≤0.01, ^###P≤0.005 vs Ctrl group; *P≤0.05 vs IL-17 group. In order to assess the biological activity of synthesized peptide, we carried out in vitro studies using NIH-3T3 mouse embryonic fibroblast cells. […] With this in vitro system we measured IL-17 activity by its ability to induce IL-6 secretion by NIH-3T3 mouse embryonic fibroblast cells. Methods: The levels of IL-6 in the cellular and air pouch inflammatory supernatants at 24 h were measured using commercially available enzyme-linked immunosorbent assay kit (ELISA kit, R&D System, Milan, Italy) according to the manufacturer instructions. […] The addition of 100 μl of the substrate and stop solution represented the last steps before the reading of absorbance (measured at 450 nm) on a microplate reader. Antigen levels in the samples were determined using a standard curve and expressed as pg/ml. […]

[2] = test system: hPBMC on cytokine-stimulated HDBEC monolayers; assay: Human PBMC static adhesion / transendothelial migration assay; format: cell-based; conditions: co-treatment plus TNF-α
Description: FIG. 10: Human dermal blood endothelial cells (HDBEC) were treated with: IL-17 vehicle (Ctrl), IL-17 or FM-0410 (100 ng/ml), alone or in combination with TNF-α (100 U/ml) for 24 h. Cells were washed, gated in their totality and singlet before the identification of IL-17Rs (RA and RC) (A, B), ICAM (C) and VCAM (D) expression. Histogram values (expressed as MIF) indicate the total positive cells (A-D). In (E) are shown phase-contrast micrographs of confluent monolayers of untreated or treated (as reported before) HDBEC. Total adhesion (expressed as INT/mm^2, F) and % of transmigration (G) are calculated with Image Pro programme (DataCell, Finchampstead). Inflammatory supernatants from all experimental conditions were assayed by Elisa for IL-6 (H) expressed in pg/ml. Data were presented as means±S.D. of n=3 healthy donors. […]
Human PBMC transendothelial migration assay: Prior to beginning the assay, HDBEC monolayers were washed with 37° C. medium 199 (Thermo Fisher Scientific) supplemented with 0.15% w/v BSA (MilliporeSigma) to remove any residual cytokines. hPBMC (1×10^6) were co-cultured with cytokine-stimulated HDBEC monolayers at 37° C. for 20 min. […] Total hPBMC adhesion and mean percentage transmigration were calculated for each well.

Substance: Ac-LEKILVSVGATAVTPIVHHVAC [FM-0410]
- IL-6 release [1]: significant, and more abundant, release of IL-6 compared to IL-17-treated group
- total number of adhered hPBMC [2]: significant increase
- transmigrated hPBMC [2]: significant increase
